From ChEMBL document CHEMBL2346656, “Anti-hepatitis B virus lignans from the root of Streblus asper” (Bioorg Med Chem Lett, 2013)

Columns and labels:
Hepatitis B virus [1] = assay: Antiviral activity against Hepatitis B virus infected in human HepG2.2.15 cells assessed as inhibition of HBV DNA replication after 72 hrs by PCR analysis; type: functional, organism-based; settings: HepG2 2.2.15, 72 h
Hepatitis B virus [2] = assay: Antiviral activity against Hepatitis B virus infected in human HepG2.2.15 cells assessed as inhibition of HBeAg secretion after 12 days by ELISA; type: functional, organism-based; settings: HepG2 2.2.15, 288 h
[3] = Cytotoxicity against human HepG2(2.2.15) cells after 12 days by MTT assay; type: cell-based
Hepatitis B virus [4] = assay: Antiviral activity against Hepatitis B virus infected in human HepG2.2.15 cells assessed as inhibition of HBsAg secretion after 12 days by ELISA; type: functional, organism-based; settings: HepG2 2.2.15, 288 h
[5] = Selectivity index, ratio of CC50 for human HepG2(2.2.15) cells to IC50 for Hepatitis B virus infected human HepG2.2.15 cells by DNA replication assay; type: functional
[6] = Selectivity index, ratio of CC50 for human HepG2(2.2.15) cells to IC50 for Hepatitis B virus infected in human HepG2.2.15 cells assessed as HBeAg secretion inhibition assay; type: functional
[7] = Selectivity index, ratio of CC50 for human HepG2(2.2.15) cells to IC50 for Hepatitis B virus infected in human HepG2.2.15 cells by HBsAg secretion inhibition assay; type: functional

Compound: C=CCc1ccc(O[C@@H]2O[C@H](CO)[C@@H](O)[C@H](O)[C@H]2O)c(-c2cc(C[C@@H](O)CO)ccc2O)c1
- IC50 (Hepatitis B virus [1]): > 1000 µM
- IC50 (Hepatitis B virus [2]): > 1000 µM
- CC50 at 288 h [3]: 190 µM
- IC50 (Hepatitis B virus [4]): > 1000 µM

Compound: COc1cc(C2c3cc(O)c(OC)cc3C[C@@H](CO)[C@@H]2CO[C@@H]2OC[C@@H](O)[C@H](O)[C@H]2O)ccc1O (stereo partly specified)
- Ratio CC50/IC50 [5]: 11.9
- IC50 (Hepatitis B virus [1]): 17.7 µM
- IC50 (Hepatitis B virus [2]): 26.7 µM
- Ratio CC50/IC50 [6]: 7.87
- Ratio CC50/IC50 [7]: 30.15
- CC50 at 288 h [3]: 210 µM
- IC50 (Hepatitis B virus [4]): 6.98 µM

Compound: C=CCc1ccc2c(c1)-c1cc([C@@H](O)[C@H](C)O)ccc1Oc1ccc(CC=C)cc1-c1cc([C@@H](O)[C@H](C)O)ccc1O2 [(7'R,8'S,7'R,8'S)-ERYTHRO-STREBLUSLIGNANOL G]
- Ratio CC50/IC50 [5]: 13.12
- IC50 (Hepatitis B virus [1]): 9.02 µM
- IC50 (Hepatitis B virus [2]): 3.24 µM
- Ratio CC50/IC50 [6]: 36.52
- Ratio CC50/IC50 [7]: 74.9
- CC50 at 288 h [3]: 118 µM
- IC50 (Hepatitis B virus [4]): 1.58 µM

Compound: COc1cc([C@H]2Oc3c(OC)cc(CCCO)cc3[C@@H]2CO)ccc1O [DIHYDRODEHYDRODICONIFERY ALCOHOL]
- IC50 (Hepatitis B virus [1]): > 1000 µM
- IC50 (Hepatitis B virus [2]): > 1000 µM
- CC50 at 288 h [3]: 180 µM
- IC50 (Hepatitis B virus [4]): > 1000 µM

Compound: COc1cc([C@H]2Oc3c(OC)cc(/C=C/C(=O)O)cc3[C@@H]2CO)ccc1O [GLYCOSMISIC ACID]
- IC50 (Hepatitis B virus [1]): > 1000 µM
- IC50 (Hepatitis B virus [2]): > 1000 µM
- CC50 at 288 h [3]: 200 µM
- IC50 (Hepatitis B virus [4]): > 1000 µM

Compound: COc1cc([C@H]2c3cc(O)c(OC)cc3C[C@@H](CO)[C@@H]2CO)ccc1O [ISOLARICIRESINOL]
- Ratio CC50/IC50 [5]: 10.18
- IC50 (Hepatitis B virus [1]): 12.7 µM
- IC50 (Hepatitis B virus [2]): 14.7 µM
- Ratio CC50/IC50 [6]: 8.82
- Ratio CC50/IC50 [7]: 35.28
- CC50 at 288 h [3]: 129 µM
- IC50 (Hepatitis B virus [4]): 3.67 µM

Compound: C=CCc1ccc(Oc2ccc(C=O)cc2O)cc1 [ISOMAGNALDEHYDE]
- IC50 (Hepatitis B virus [1]): > 1000 µM
- IC50 (Hepatitis B virus [2]): 86.7 µM
- Ratio CC50/IC50 [6]: 2.14
- Ratio CC50/IC50 [7]: 1.14
- CC50 at 288 h [3]: 186 µM
- IC50 (Hepatitis B virus [4]): 162 µM

Compound: C=CCc1ccc(Oc2cc(CC=C)ccc2O)cc1 [ISOMAGNOLOL]
- Ratio CC50/IC50 [5]: 15.13
- IC50 (Hepatitis B virus [1]): 12.9 µM
- IC50 (Hepatitis B virus [2]): 8.83 µM
- Ratio CC50/IC50 [6]: 22.14
- Ratio CC50/IC50 [7]: 18.91
- CC50 at 288 h [3]: 196 µM
- IC50 (Hepatitis B virus [4]): 10.3 µM

Compound: C=CCc1ccc(Oc2ccc(/C=C/C=O)cc2)c(O)c1 [ISOSTREBLUSLIGNANALDEHYDE]
- Ratio CC50/IC50 [5]: 3.27
- IC50 (Hepatitis B virus [1]): 61.2 µM
- IC50 (Hepatitis B virus [2]): 10.5 µM
- Ratio CC50/IC50 [6]: 19.11
- Ratio CC50/IC50 [7]: 16.46
- CC50 at 288 h [3]: 200 µM
- IC50 (Hepatitis B virus [4]): 12.2 µM

Compound: Nc1ccn([C@@H]2CS[C@H](CO)O2)c(=O)n1 [LAMIVUDINE]
- Ratio CC50/IC50 [5]: 3.93
- IC50 (Hepatitis B virus [1]): 99.5 µM
- IC50 (Hepatitis B virus [2]): 176 µM
- Ratio CC50/IC50 [6]: 2.22
- Ratio CC50/IC50 [7]: 2.77
- CC50 at 288 h [3]: 391 µM
- IC50 (Hepatitis B virus [4]): 141 µM

Compound: C=CCc1ccc(O)c(-c2cc(C=O)ccc2O)c1 [MAGNALDEHYDE]
- IC50 (Hepatitis B virus [1]): > 1000 µM
- IC50 (Hepatitis B virus [2]): 41.4 µM
- Ratio CC50/IC50 [6]: 4.83
- Ratio CC50/IC50 [7]: 1.84
- CC50 at 288 h [3]: 200 µM
- IC50 (Hepatitis B virus [4]): 109 µM

Compound: C=CCc1ccc(O)c(-c2cc(C[C@@H](O)CO)ccc2O)c1 [MAGNOLIGNAN A]
- IC50 (Hepatitis B virus [1]): > 1000 µM
- IC50 (Hepatitis B virus [2]): > 1000 µM
- CC50 at 288 h [3]: 176 µM
- IC50 (Hepatitis B virus [4]): > 1000 µM

Compound: C=CCc1ccc(O)c(-c2cc(CC=C)ccc2O)c1 [MAGNOLOL]
- Ratio CC50/IC50 [5]: 7.34
- IC50 (Hepatitis B virus [1]): 8.67 µM
- IC50 (Hepatitis B virus [2]): 3.76 µM
- Ratio CC50/IC50 [6]: 16.94
- Ratio CC50/IC50 [7]: 31.37
- CC50 at 288 h [3]: 63.7 µM
- IC50 (Hepatitis B virus [4]): 2.03 µM

Compound: C=CCc1ccc(Oc2cc(CC=C)cc(O)c2O)cc1 [OBOVATOL]
- CC50 at 288 h [3]: 180 µM

Compound: C=CCc1ccc(O)c(-c2cc(O)ccc2O)c1 [RANDAIOL]
- IC50 (Hepatitis B virus [1]): > 1000 µM
- IC50 (Hepatitis B virus [2]): 30.2 µM
- Ratio CC50/IC50 [6]: 6.63
- Ratio CC50/IC50 [7]: 1.23
- CC50 at 288 h [3]: 201 µM
- IC50 (Hepatitis B virus [4]): 162 µM

Compound: C=CCc1ccc(O)c(-c2cc([C@H]3O[C@H](c4ccc(O)c(-c5cc(CC=C)ccc5O)c4)[C@@H](C)O[C@@H]3C)ccc2O)c1 [STREBLUSLIGNANOL F]
- Ratio CC50/IC50 [5]: 11.87
- IC50 (Hepatitis B virus [1]): 11.6 µM
- IC50 (Hepatitis B virus [2]): 43.2 µM
- Ratio CC50/IC50 [6]: 3.17
- Ratio CC50/IC50 [7]: 2.41
- CC50 at 288 h [3]: 137 µM
- IC50 (Hepatitis B virus [4]): 56.9 µM

Compound: C=CCc1ccc(O)c(-c2cc([C@@H](O)[C@@H](C)O)ccc2O)c1 [STREBLUSLIGNANOL]
- IC50 (Hepatitis B virus [1]): > 1000 µM
- IC50 (Hepatitis B virus [2]): 147 µM
- Ratio CC50/IC50 [6]: 1.36
- CC50 at 288 h [3]: 200 µM
- IC50 (Hepatitis B virus [4]): > 1000 µM
